# Experimental data reported in patent US20200392116A1, “SUBSTITUTED HETEROCYCLES AS c-MYC TARGETING AGENTS” (NORTHWESTERN UNIVERSITY, priority 2019, published 2020).
# Test: Potency code of Table 2 (assay not stated)
row,Compound,Potency code
1,CCCCOc1ccc(-c2cc(C(F)(F)F)n(C)n2)c(O)c1-c1cc(C(F)(F)F)cc(C(F)(F)F)c1 [NUCC-0201652],+ (>40 +)
2,C#CCC(N=[N+]=[N-])C(=O)Nc1ccc(COc2ccc(-c3cc(C(F)(F)F)nn3C)c(O)c2-c2cncc(C(F)(F)F)c2)cc1 (stereo not drawn) [NUCC-0201698],+ (>40 +)
3,CCCCCCOc1ccc(-c2cc(C(F)(F)F)n[nH]2)c(O)c1-c1cncc(C(F)(F)F)c1 [NUCC-0201192],+++ (10-30 +++)
4,Oc1c(-c2cc(C(F)(F)F)[nH]n2)ccc(OCc2ccc(Cl)cc2)c1-c1ccc(Cl)c(C(F)(F)F)c1 [NUCC-0200732],+ (>40 +)
5,COc1ccc(-c2c(-c3ccc(OCc4ccc(Cl)cc4)cc3O)noc2C(F)(F)F)cc1OC [NUCC-0196306],+ (>40 +)
6,Cn1nc(-c2ccc(OCc3ccc(F)cc3)c(-c3cc(C(F)(F)F)cc(C(F)(F)F)c3)c2O)cc1C(F)(F)F [NUCC-0201035],+ (>40 +)
7,Cn1nc(C(F)(F)F)cc1-c1ccc(OCc2ccc(Cl)cc2)c(-c2ccc(Cl)c(C(F)(F)F)c2)c1O [NUCC-0200975],+ (>40 +)
8,COc1ccc(COc2ccc(-c3cc(C(F)(F)F)n(C)n3)c(O)c2-c2cc(C(F)(F)F)cc(C(F)(F)F)c2)cc1 [NUCC-0201043],+ (>40 +)
9,NC(=O)c1cc(-c2ccc(Nc3ccc(Cl)cc3)cc2O)n[nH]1 [NUCC-0200677],+ (>40 +)
10,O=CNc1ccc(Nc2ccc(-c3cc(C(F)(F)F)[nH]n3)c(O)c2)cc1 [NUCC-0200563],+ (>40 +)
11,CCc1ccc(Oc2c(-c3ccc(Oc4ccc(Cl)cc4)cc3O)n[nH]c2C(F)(F)F)cc1 [NUCC-0200681],++++ (<10 ++++)
12,C#CCC(N=[N+]=[N-])C(=O)NCCCOc1ccc(-c2cc(C(F)(F)F)nn2C)c(O)c1-c1cncc(C(F)(F)F)c1 (stereo not drawn) [NUCC-0201696],++ (30-40 ++)
13,Oc1c(-c2cc(C(F)(F)F)n[nH]2)ccc(OCc2ccc(Cl)cc2)c1-c1ccc2c(c1)OCCO2 [NUCC-0200686],+ (>40 +)
14,Oc1c(-c2cc(C(F)(F)F)n[nH]2)ccc(OCCc2ccc(Cl)cc2)c1-c1cc(C(F)(F)F)cc(C(F)(F)F)c1 [NUCC-0201024],++++ (<10 ++++)
15,CCc1ccc(Oc2c(-c3ccccc3O)n[nH]c2C(F)(F)F)cc1 [NUCC-0200683],+++ (10-30 +++)
16,CCc1ccc(Oc2c(-c3ccc(OCc4cccc(OC)c4)cc3O)nn(C)c2C(F)(F)F)cc1 [NUCC-0196298],++ (30-40 ++)
17,COc1ccc(-c2cc(C(F)(F)F)n(C)n2)c(O)c1-c1cc(C(F)(F)F)cc(C(F)(F)F)c1 [NUCC-0201221],+ (>40 +)
18,Oc1cc(OCc2ccc(Cl)cc2)ccc1-c1cc(C(F)(F)F)nc(-c2ccc(F)cc2)n1 [NUCC-0200503],+ (>40 +)
19,COC(=O)c1cc(-c2ccc(OCc3ccc(Cl)cc3)c(-c3cc(C(F)(F)F)cc(C(F)(F)F)c3)c2O)nn1C [NUCC-0200970],+ (>40 +)
20,CCCCOc1ccc(-c2cc(C(F)(F)F)nn2C)c(O)c1-c1cncc(C(F)(F)F)c1 [NUCC-0201204],+++ (10-30 +++)
21,CC(C)CCOc1ccc(-c2cc(C(F)(F)F)n(C)n2)c(O)c1-c1cncc(C#N)c1 [NUCC-0201213],++++ (<10 ++++)
22,Oc1c(-c2cc(C(F)(F)F)[nH]n2)ccc(OCc2ccc(Cl)cc2)c1-c1cccc(C(F)(F)F)c1 [NUCC-0200730],+ (>40 +)
23,CCc1ccc(Oc2c[nH]nc2-c2ccc(OCc3ccc(F)cc3)cc2O)cc1 [NUCC-0176257],+ (>40 +)
24,CC(C)CCOc1ccc(-c2cc(C(F)(F)F)nn2C)c(O)c1-c1cncc(C#N)c1 [NUCC-0201208],++++ (<10 ++++)

row,Compound,Potency code
1,Oc1cc(Nc2ccc3c(c2)OCO3)ccc1-c1cc(C(F)(F)F)[nH]n1 [NUCC-0200561],+ (>40 +)
2,Cn1nc(C(F)(F)F)cc1-c1ccc(OCc2ccc(Cl)cc2)cn1 [NUCC-0200690],+ (>40 +)
3,Cc1cc(C)c(-c2c[nH]nc2-c2ccc(OCc3ccc(Cl)cc3)cc2O)c(C)c1 [NUCC-0198359],++ (30-40 ++)
4,Oc1cc(OCc2ccccc2)ccc1-c1n[nH]cc1Oc1ccccc1 [NUCC-0176255],+ (>40 +)
5,CCCCOc1ccc(-c2cc(C(F)(F)F)nn2C)c(O)c1-c1ccc(Cl)c(C(C)(C)F)c1 [NUCC-0201226],+++ (10-30 +++)
6,CCc1ccc(Oc2c[nH]nc2-c2ccc(OCc3ccc(C(F)(F)F)cc3)cc2O)cc1 [NUCC-0176244],+ (>40 +)
7,COc1ccc(-c2c[nH]nc2-c2ccc(OCc3ccc(Cl)cc3)cc2O)cc1 [NUCC-0198304],+ (>40 +)
8,Oc1cc(OCc2ccncc2)ccc1-c1n[nH]cc1Oc1ccccc1 [NUCC-0176251],+ (>40 +)
9,N#Cc1cncc(-c2c(OCc3ccc(Cl)cc3)ccc(-c3cc(C(F)(F)F)n[nH]3)c2O)c1 [NUCC-0201038],++++ (<10 ++++)
10,COc1ccc(CCOc2ccc(-c3cc(C(F)(F)F)nn3C)c(O)c2-c2cc(C(F)(F)F)cc(C(F)(F)F)c2)cc1 [NUCC-0201028],+ (>40 +)
11,Cc1[nH]nc(-c2ccc(OCc3ccc(F)cc3)cc2O)c1Oc1ccccc1 [NUCC-0176259],+ (>40 +)
12,N#Cc1cc(-c2ccc(Nc3ccc(Cl)cc3)cc2O)n[nH]1 [NUCC-0200678],+ (>40 +)
13,Oc1c(-c2cc(C(F)(F)F)n[nH]2)ccc(OCc2ccc(F)cc2)c1-c1cc(C(F)(F)F)cc(C(F)(F)F)c1 [NUCC-0201033],+ (>40 +)
14,CCc1ccc(Oc2c(-c3ccc(OCc4ccc(Cl)cc4)cc3O)n[nH]c2CC)cc1 [NUCC-0196282],+ (>40 +)
15,Cc1c(-c2ccccc2)c(-c2ccc(OCc3ccc(Cl)cc3)cc2O)nn1C [NUCC-0198300],+ (>40 +)
16,COc1cccc(COc2ccc(-c3n[nH]cc3Oc3cc(C)ccc3C)c(O)c2)c1 [NUCC-0196288],+ (>40 +)
17,Cn1nc(C(F)(F)F)cc1-c1ccc(OCc2ccc(Cl)cc2)c(-c2cccc(C(N)=O)c2)c1O [NUCC-0198402],+ (>40 +)
18,CCc1ccc(Oc2c(-c3ccc(O)cc3N)nn(C)c2C(F)(F)F)cc1 [NUCC-0200682],+ (>40 +)
19,CCc1ccc(Oc2c(-c3ccc(OCc4ccc(Cl)cc4)cc3O)nn(C)c2CC)cc1 [NUCC-0196294],+ (>40 +)
20,Cn1cc(-c2ccc(OCc3ccc(Cl)cc3)cc2Cl)c(C(F)(F)F)n1 [NUCC-0200814],+ (>40 +)
21,Cn1cc(-c2ccc(OCc3ccc(Cl)cc3)cc2N)c(C(F)(F)F)n1 [NUCC-0200746],+ (>40 +)
22,COc1ccccc1-c1c[nH]nc1-c1ccc(OCc2ccc(Cl)cc2)cc1O [NUCC-0198357],+ (>40 +)
23,Oc1cc(OCc2ccc(Cl)cc2)ccc1-c1cc(C(F)(F)F)nc(-c2cccc(C(F)(F)F)c2)n1 [NUCC-0200500],+ (>40 +)
24,Cn1nc(C(F)(F)F)cc1-c1ccc(OCCc2ccc(Cl)cc2)c(-c2cc(C(F)(F)F)cc(C(F)(F)F)c2)c1O [NUCC-0201025],++ (30-40 ++)

row,Compound,Potency code
1,CCc1ccc(Oc2c(-c3ccc(OCCc4ccc(Cl)cc4)cc3O)nn(C)c2C(F)(F)F)cc1 [NUCC-0196356],+ (>40 +)
2,Cn1nc(C(F)(F)F)cc1-c1ccc(O)c(-c2cc(C(F)(F)F)cc(C(F)(F)F)c2)c1O [NUCC-0200723],++ (30-40 ++)
3,Cn1nc(C(F)(F)F)cc1-c1ccc(OCc2ccc([N+](=O)[O-])cc2)c(-c2cncc(C(F)(F)F)c2)c1O [NUCC-0201653],+++ (10-30 +++)
4,Cn1cc(-c2ccc(OCc3ccc(Cl)cc3)cn2)c(C(F)(F)F)n1 [NUCC-0200741],+ (>40 +)
5,Oc1cc(Nc2ccc(F)c(F)c2)ccc1-c1cc(C(F)(F)F)[nH]n1 [NUCC-0200559],++ (30-40 ++)
6,Cn1nc(C(F)(F)F)cc1-c1ccc(OCc2ccc(Cl)cc2)cc1C#N [NUCC-0200812],+ (>40 +)
7,Oc1ccccc1-c1cc(C(F)(F)F)n[nH]1 [NUCC-0200574],+ (>40 +)
8,CCc1ccc(Oc2c(-c3ccc(O)cc3O)n[nH]c2C(F)(F)F)cc1 [NUCC-0198406],++++ (<10 ++++)
9,CCc1nn(C)c(-c2ccc(OCc3ccc(Cl)cc3)cc2O)c1-c1ccccc1 [NUCC-0198302],+ (>40 +)
10,c1ccc(COc2ccccc2-c2nn[nH]c2-c2ccccc2)cc1 [NUCC-0200722],+ (>40 +)
11,Cn1nc(C(F)(F)F)c(Br)c1-c1ccc(OCc2ccc(Cl)cc2)cc1C#N [NUCC-0200979],+ (>40 +)
12,Cn1cc(-c2cn(C)nc2-c2ccc(OCc3ccc(Cl)cc3)cc2O)cn1 [NUCC-0198362],+ (>40 +)
13,COc1ccc(-c2cc(C(F)(F)F)nn2C)c(O)c1-c1cc(C(F)(F)F)cc(C(F)(F)F)c1 [NUCC-0201222],+++ (10-30 +++)
14,Cn1nc(-c2ccc(OCc3ccc(Cl)cc3)c(-c3cncc(C#N)c3)c2O)cc1C(F)(F)F [NUCC-0201633],+ (>40 +)
15,CCc1c(-c2cccc(OC)c2)c(-c2ccc(OCc3ccc(Cl)cc3)cc2O)nn1C [NUCC-0198317],+ (>40 +)
16,CCc1nn(C)c(-c2ccc(OCc3ccc(Cl)cc3)cc2O)c1-c1cccc(OC)c1 [NUCC-0198316],+ (>40 +)
17,Oc1c(-c2cc(C(F)(F)F)n[nH]2)ccc(OCc2ccc(Cl)cc2)c1-c1cncc(C(F)(F)F)c1 [NUCC-0201037],+++ (10-30 +++)
18,CN1CCN(c2ccc(-c3cc(C(F)(F)F)[nH]n3)c(O)c2)CC1 [NUCC-0200567],+ (>40 +)
19,Oc1cc(OCc2ccc(Cl)cc2)ccc1-c1n[nH]cc1Oc1ccccc1 [NUCC-0176247],+ (>40 +)
20,CCCCOc1ccc(-c2cc(C(F)(F)F)n(C)n2)c(O)c1-c1cncc(C#N)c1 [NUCC-0201639],+ (>40 +)
21,Cn1nc(-c2ccc(OCc3ccc(Cl)cc3)c(Br)c2O)cc1C(F)(F)F [NUCC-0198408],+ (>40 +)
22,Cn1nc(C(F)(F)F)cc1-c1ccc(OCc2ccc([N+](=O)[O-])cc2)c(-c2cc(C(F)(F)F)cc(C(F)(F)F)c2)c1O [NUCC-0201648],+ (>40 +)
23,Cn1nc(C(F)(F)F)cc1-c1cnc(O)cn1 [NUCC-0200689],+ (>40 +)
24,CCc1ccc(Oc2cn(C)nc2-c2ccc(OCc3ccc(Cl)cc3)cc2O)cc1 [NUCC-0176260],+ (>40 +)
